Data set [1] has as its system C. albicans wild-type strain SC5314 biofilm formation. In words: microbe, parasite or virus in culture. In kind it is cell-based, Candida albicans. Particulars: for IC50: SC5314, 24 h; for Inhibition of biofilm formation: NCI Natural set, dose response.
A further data set can be described thus: in vitro. Particulars: human.
The subject of data set [2] is Human hepatocellular carcinoma (HepG2) cells.
For the next data set, the system named is C. albicans. The settings on record: cited from earlier work.
Data set [3] relates to C. albicans tet-NRG1 strain filamentation. In kind it is cell-based, Candida albicans. The settings on record: YPD plus DOX, dose response.

Starred links: 1 amine or outer side, 2 acyl side, 3 side chain; linkers in the order of their positions; H or OH if unused. Positions of bridges follow the written chain, without caps; N, C: chain ends. Non-standard residues stand in square brackets, D forms with d. Residues, ends and D or L forms follow the SMILES beside them. *: point of attachment. Ileψ(thiazoline)Cys = CC[C@H](C)[C@H](N)C1=N[C@H](C(=O)*)CS1; X2 = CCC(=O)CC(O)C[C@@H](C)C[C@H](N[*:1])C(=O)[*:2]; Alaψ(CH2NMeCH2CH2OH) = C[C@@H](CN(C)CCO)N*; dOrn = NCCC[C@@H](N)C(=O)O; X1 = CCCCCCCCC(C)C(=O)*; Aib = CC(C)(N)C(=O)O

`CCCCCCCCC(C)C(=O)N1CCC[C@H]1C(=O)N[C@@H](C[C@H](C)CC(O)CC(=O)CC)C(=O)N[C@@H](C)C(=O)NC(C)(C)C(=O)NC(C)(C)C(=O)N[C@H](C(=O)N[C@@H](C)C(=O)NC(C)(C)C(=O)NC(C)(C)C(=O)N[C@@H](C)CN(C)CCO)C(C)C` (stereo partly drawn) [Compound 19, Trichopolyn-B] (X1-P[X2]A[Aib][Aib]VA[Aib][Aib]-{Alaψ(CH2NMeCH2CH2OH)}; N-terminus and C-terminus assumed) showed an IC50 in data set [1] of 666 nM. Also, the CC50 in “in vitro” amounted to 2990 nM.

Take `COc1ccc(C[C@H]2NC[C@H](O)[C@H]2OC(C)=O)cc1` [Compound 2, Anisomycin]: the “Inhibition of biofilm formation” value in data set [1] is on record as “inhibited biofilm formation only”.

Regarding `CC[C@H](C)[C@H](N)C1=N[C@H](C(=O)N[C@@H](CC(C)C)C(=O)N[C@H](CCC(=O)O)C(=O)N[C@H](C(=O)N[C@H]2CCCCNC(=O)[C@H](CC(N)=O)NC(=O)[C@@H](CC(=O)O)NC(=O)[C@H](Cc3c[nH]cn3)NC(=O)[C@@H](Cc3ccccc3)NC(=O)[C@H]([C@@H](C)CC)NC(=O)[C@@H](CCCN)NC2=O)[C@@H](C)CC)CS1` [Compound 4, Bacitracin] ({Ileψ(thiazoline)Cys}-L[dE]IK[dOrn]I[dF]H[dD]N; lactam 4-C; N-terminus assumed), in data set [1], the “Inhibition of biofilm formation” value is recorded as “inhibited biofilm formation only” and the IC50 was 2130 nM.

In the case of `CCCCCCCCCCCCCCC(O)C[N+](C)(CCO)CCO` (stereo not drawn) [Compound 29, Hexadecanaminium, 2-hydroxy-N,N-bis(2-hydroxyethyl)-N-methyl-, chloride], in data set [2], the CC50 was determined as 13900 nM.

Regarding `CC(C)[C@@H]1NC(=O)[C@H](C)OC(=O)[C@@H](C(C)C)NC(=O)[C@@H](C(C)C)OC(=O)[C@H](C(C)C)NC(=O)[C@H](C)OC(=O)[C@@H](C(C)C)NC(=O)[C@@H](C(C)C)OC(=O)[C@H](C(C)C)NC(=O)[C@H](C)OC(=O)[C@@H](C(C)C)NC(=O)[C@@H](C(C)C)OC1=O` [Compound 6, Valinomycin], in data set [1], the “Inhibition of biofilm formation” value is given as “inhibited biofilm formation only”. In addition, in the data set with C. albicans (C. albicans, ref Watanabe, Azuma, Igarashi & Ooshima, 2005), the “Inhibition of hyphal growth” value is on record as “inhibit hyphal growth”. This molecule also showed a CC50 in “in vitro” of 2870 nM.

For the molecule `CCCCCCCCCCCCCCC[C@@H](O)C[N+](C)(C)CCO` [Compound 21, 2-hydroxyethyl-[(2R)-2-hydroxyheptadecyl]-dimethylazanium;iodide], the CC50 in data set [2] came out at 10000 nM.

Regarding `COc1cc2cc(C(=O)N3CC(COS(C)(=O)=O)c4ccc(O)cc43)[nH]c2c(OC)c1OC` (stereo not drawn) [Compound 27, 6-Hydroxy-3-((methanesulfonyloxy) Methyl)-1-((5,6,7-trimethoxyindol-2-yl)carbonyl)indoline], the IC50 in data set [1] (Candida albicans) was found to be 495 nM. The molecule further displayed a CC50 in the data set “in vitro” below 1560 nM.

In the case of Nanaomycin [Compound 3], the “Inhibition of filamentation” value in data set [3] is on record as “inhibited filamentation in a dose-response manner”.

`N#Cc1cn([C@@H]2O[C@H](CO)[C@@H](O)[C@H]2O)c2ncnc(N)c12` [Compound 23, Vengicide (Unamycin B, Toyocamycin)] came in with an IC50 in data set [1] (Candida albicans) of 1040 nM. The molecule further came in with a CC50 in “in vitro” below 1560 nM.

For the molecule `CC[C@H](C)[C@H](N)C1=N[C@H](C(=O)N[C@@H](CC(C)C)C(=O)N[C@H](CCC(=O)O)C(=O)N[C@H](C(=O)N[C@H]2CCCCNC(=O)[C@H](CC(N)=O)NC(=O)[C@@H](CC(=O)O)NC(=O)[C@H](Cc3cnc[nH]3)NC(=O)[C@@H](Cc3ccccc3)NC(=O)[C@H]([C@@H](C)CC)NC(=O)[C@@H](CCCN)NC2=O)[C@@H](C)CC)CS1` [Compound 4, Bacitracin] ({Ileψ(thiazoline)Cys}-L[dE]IK[dOrn]I[dF]H[dD]N; lactam 4-C (inferred)), in “in vitro”, the CC50 at 24 hr was above 100000 nM.

Take `CC(=O)O[C@@H]1C[C@H]2O[C@@H]3C=C(C)CC[C@]3(C)[C@]1(C)[C@]21CO1` [Compound 1, Trichoderonin]: the “Inhibition of filamentation” value in data set [3] is on record as “inhibited filamentation in a dose-response manner”.

`CC1OC(CC(=O)O)Cc2c(O)c3c(c(O)c21)C(=O)C=C(C1=CC(=O)c2c(O)c4c(c(O)c2C1=O)CC(CC(=O)O)OC4C)C3=O` (stereo not drawn) [Compound 13, 2-[7-[3-(carboxymethyl)-5,10-dihydroxy-1-methyl-6,9-dioxo-3,4-dihydro-1H-benzo[g]isochromen-7-yl]-5,10-dihydroxy-1-methyl-6,9-dioxo-3,4-dihydro-1H-benzo[g]isochromen-3-yl]acetic acid]: the IC50 in data set [1] (Candida albicans) was 3310 nM. In other words, the single-digit micromolar range.

Molecule `CO[C@H]1C[C@@H]2CC[C@@H](C)[C@@](O)(O2)C(=O)C(=O)N2CCCC[C@H]2C(=O)O[C@H]([C@H](C)C[C@@H]2CC[C@@H](O)[C@H](OC)C2)CC(=O)[C@H](C)/C=C(\C)[C@@H](O)[C@@H](OC)C(=O)[C@H](C)C[C@H](C)/C=C/C=C/C=C/1C` [Compound 5, Rapamune (rapamycin, sirolimus)] returned an IC50 in data set [1] (Candida albicans) of 514 nM. Also, the “Inhibition of filamentation” value in data set [3] is “inhibited filamentation in a dose-response manner”. Besides, the “Effect on the morphogenic transition” value in the data set with C. albicans (most liquid hypha-inducing media, ref Bastidas, Heitman & Cardenas, 2009) is “no effect on the morphogenic transition”.

The molecule `CC(NCCN(C)C)C1CCC2C3CCc4cc(O)ccc4C3CCC12C` (stereo not drawn) [Compound 8, 17-[1-[2-(dimethylamino)ethylamino]ethyl]-13-methyl-6,7,8,9,11,12,14,15, 16,17-decahydrocyclopenta[a]phenanthren-3-ol] showed an IC50 in data set [1] (Candida albicans) of 9.7 nM. The molecule also registered a CC50 at 24 h in the data set “in vitro” of 8080 nM.

Turning to `CCN(CC)CCN1c2ccccc2Sc2ccc3ccccc3c21` [Compound 14, 2-benzo[a]phenothiazin-12-yl-N,N-diethylethanamine], in data set [1] (Candida albicans), 3800 nM corresponded to half-maximal inhibition (IC50).

As a reminder, the IC50 is the concentration needed to halve the response being measured. Lower therefore signals greater potency in that assay.
